# Reference: patent publication US8314234B2, “Bicyclic pyrimidine kinase inhibitors” (Janssen Pharmaceutica N.V., priority 2006, dated 2012)
# Columns and labels:
# EGFR = target: T1, EGFR (Homo sapiens, UniProt P00533); test: EGFR Kinase Assay; assay type: biochemical; details: test concentration of 2 μM
# T1 construct: intracellular portion of EGFR started at nucleotide 2189 (corresponding to amino acid 667) and ended at the termination codon; made in house; host or cells: Sf9 insect cells (baculovirus)
# Source text: The EGFR kinase used was a fusion of Glutathione-S-Transferase (GST) and a PCR amplified intracellular portion of EGFR (NM_005228). The intracellular portion of EGFR started at nucleotide 2189 (corresponding to amino acid 667) and ended at the termination codon. The portion was PCR amplified with primers that added the lambda attB sequences to each end, recombined into an entry vector, then into a GST destination vector (as described in Gateway Technologies Manual by Invitrogen Corporation, Carlsbad, Calif.).
# The destination vector was recombined in the DH10BAC strain of bacteria to produce a bacmid. The bacmid was transfected into Sf9 cells and the supernatant containing the baculovirus was collected. The GSTEGFR protein was purified using large cultures of Sf9 cells infected with stock virus. After an appropriate period of time, the cells were collected and lysed. The GSTEGFR was then purified from the lysate on Glutathione-Sepharose columns (as described by Amersham Biosciences, Buckinghamshire, United Kingdom).
# The EGFR substrate was prepared by biotinylating polyGluTyr (128 mg) (Sigma, St. Louis, Mo.) in a 1×PBS buffer incubated together with a 12-fold molar excess of Sulfo-NHS-LC-Biotin on ice for at least 2 hrs. The free biotin was separated from the biotinylated polyGluTyr on a gel filtration column.
# A mixture of a 10× kinase buffer (500 mM Tris at pH 8.0, 100 mM Magnesium Chloride and 1 mM Sodium Vanadate), DTT (1 mM final from 500 mM stock), ATP (5 μM final from 10 mM stock), biotinylated polyGluTyr (10 μg/μL stock), γ-^33P ATP (10 μCi/μL stock) and water was added to each well (90 μL/well) of a Streptavidin Flashplate (Perkin Elmer, Wellesley, Mass.).
# Test compound in 100% DMSO (2 μL) was added to the appropriate wells. Diluted GSTEGFR (1:300 dilution in 50 mM Tris at pH 8.0 and 0.1% bovine serum albumin) (10 μL) was added to the wells to initiate the reactions.
# The plates were incubated at 30° C. for 1 hr with shaking. The reacted contents were removed and the plates were sequentially washed three times with a 1×PBS stop buffer (300 μL without Magnesium and Calcium) and 100 mM EDTA. After the final wash, the same stop buffer (200 μL) was added to the wells. The plates were then sealed and read on the TopCount scintillation counter.
# Test compounds were assayed in triplicate at 16 concentrations at half-log dilutions starting at 200 uM. A maximum and minimum signal for the assay was determined on each plate. The percent inhibition of a test compound was calculated according to the formula
# For a series of test concentrations, the IC50 was derived by graphing percent inhibition against the log of the concentrations tested for a given compound. The percent inhibition results are shown in Table 1 at a test concentration of 2 μM. For those compounds with an IC50, the IC50 value is shown in parentheses.
# CDK1 = target: T2, CDK1 (Homo sapiens, UniProt P06493); test: CDK-1 screening assay; assay type: biochemical
# T2 construct: purchased New England Biolabs, Beverly, Mass; 6020; host or cells: insect cells
# Procedure: (§1) 70 μL of the kinase reaction mixture was dispensed into the well of a streptavidin coated FlashPlate™ (Cat. #SMP103, NEN, Boston, Mass.).
# (§2) Test compound stock in 100% DMSO (1 μL) was added to the wells resulting in a final concentration of 1% DMSO in the reaction with a 100 μL final reaction volume. Each enzyme was diluted in 50 mM Tris-HCl pH=8.0, 0.1% BSA and 30 μL was added to each well to initiate the reaction. The reaction was incubated for one hour at 30° C. At the end of the 1 hr incubation, the reaction was terminated by aspirating the mixture from the plate and washing the wells twice with PBS containing 100 mM EDTA. The biotinylated peptide substrate became immobilized on the Flashplate and the incorporation of ^33P-γ-ATP was measured by reading the plate on a scintillation counter. Inhibition of the enzymatic activity was measured by observing a reduced amount of ^33P-γ-ATP incorporated into the immobilized peptide.
# (§3) A maximum and minimum signal for the assay was determined on each plate. The percent inhibition of a test compound was calculated according to the formula: […]
# (§4) The term “ND” means “not determined.”
# A375 malignant melanoma = test: Cell Proliferation Inhibition Assay (14C-thymidine incorporation), A375; assay type: cell-based; details: Homo sapiens, A-375
# Source text: (§5) The ability of a test compound to inhibit unregulated cell proliferation may be determined by measuring incorporation of ^14C-labelled thymidine into newly synthesized DNA within cell lines derived from carcinomas originating from several tissues. Accordingly, the anti-proliferative effect of a compound on cells with a variety of phenotypes may be determined.
# (§6) Carcinoma cell lines include those such as HeLa cervical adenocarcinoma (American Type Culture Collection (ATCC), Virginia, Cat. #CCL-2), A375 malignant melanoma (ATCC CRL-1619), SK-OV-3 ovarian adenocarcinoma (ATCC HTB-77), HCT-116 colon carcinoma (CCL-247), PC-3 prostate adenocarcinoma (ATCC CRL-1435), and MDA-MB-231 (Xenogen Corp.)
# (§7) The carcinoma cells are trypsinized and counted. The cells (3000-8000 count) are added to each well of a 96-well CytoStar tissue culture treated scintillating microplate (Amersham #RPNQ0160) in complete medium (100 μL) and the plate is then incubated in complete medium for 24 hrs at 37° C. in an inert atmosphere containing 5% CO2. Test compound (1 μL) in 100% DMSO is added to the plate test-wells with DMSO only added to control-wells. The plate is incubated in complete medium for a second 24 hr period at 37° C. in an atmosphere containing 5% CO2.
# (§8) An aliquot of a solution of Methyl ^14C-thymidine (56 mC/mmol) (NEN #NEC568 or Amersham #CFA532) and complete medium (20 uL to provide 0.2 μCi/well) is then added to each well and the plate is incubated for a third 24 hr period at 37° C. in an atmosphere containing 5% CO2. The plate contents are then discarded, the plate is washed twice with PBS (200 μL) and then PBS (200 μL) is added to each well. The plate is sealed and the degree of methyl ^14C-thymidine incorporation is quantified on a Packard Top Count.
# HCT-116 colon carcinoma = test: Cell Proliferation Inhibition Assay (14C-thymidine incorporation), HCT-116; assay type: cell-based; details: Homo sapiens
# Source text: as §5, §6, §7, §8
# [1] = test system: HeLa cervical adenocarcinoma; test: Cell Proliferation Inhibition Assay (14C-thymidine incorporation), HeLa; assay type: cell-based; details: Homo sapiens
# Source text: as §5, §6, §7, §8
# CDK2 = target: T3, CDK2 (Homo sapiens, UniProt P24941); test: CDK-2 screening assay; assay type: biochemical
# T3 construct: purchased Upstate Biotech, Lake Placid, N.Y
# Procedure: as §1, §2
# The CDK2 enzyme in complex with cyclin A is commercially available (Upstate Biotech, Lake Placid, N.Y.).
# as §3, §4
# VEGFR2 = VEGFR2 (Rattus norvegicus, UniProt O08775); test: VEGFR2 screening assay; assay type: biochemical
# Procedure: A kinase reaction mixture was prepared containing 50 mM Tris-HCl pH=8, 10 mM MgCl2, 0.1 mM […], 1 mM DTT, 10 μM ATP, 0.025 μM biotinylated histone-H1 peptide substrate and 0.2 μCuries per well ^33P-γ-ATP (2000-3000 Ci/mmol). 70 μL of the kinase reaction mixture was dispensed into the well of a streptavidin coated FlashPlate™ (Cat. #SMP103, NEN, Boston, Mass.).
# as §2
# The VEGF-R2 enzyme is a fusion protein containing a polyhistidine tag at the N terminus followed by amino acids 786 to 1343 of the rat VEGF-R2 kinase domain (Accession number U93306). The assay used 150 ng of the N-terminal biotinylated peptide biotin-[…]-amide SEQ ID NO: 2) (VEGF-R2) per well.
# as §3
# For a series of test concentrations, the IC50 was derived by graphing percent inhibition against the log of the concentrations tested for a given compound with results shown in Table 2. For those compounds without an IC50, the inhibition values in percent are shown at a test concentration of 2 μM. The term “ND” means “not determined.”
# T2 sequence (P06493 whole entry): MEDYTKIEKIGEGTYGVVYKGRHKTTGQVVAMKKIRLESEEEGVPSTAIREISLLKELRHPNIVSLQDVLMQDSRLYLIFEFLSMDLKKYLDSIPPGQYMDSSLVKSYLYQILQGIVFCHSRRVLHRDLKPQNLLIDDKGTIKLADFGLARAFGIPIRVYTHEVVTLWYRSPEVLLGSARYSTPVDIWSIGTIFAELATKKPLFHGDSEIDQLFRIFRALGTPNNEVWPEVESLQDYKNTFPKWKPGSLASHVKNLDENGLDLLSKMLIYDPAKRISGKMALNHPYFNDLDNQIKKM
# T2 sequence (P14635 whole entry partner): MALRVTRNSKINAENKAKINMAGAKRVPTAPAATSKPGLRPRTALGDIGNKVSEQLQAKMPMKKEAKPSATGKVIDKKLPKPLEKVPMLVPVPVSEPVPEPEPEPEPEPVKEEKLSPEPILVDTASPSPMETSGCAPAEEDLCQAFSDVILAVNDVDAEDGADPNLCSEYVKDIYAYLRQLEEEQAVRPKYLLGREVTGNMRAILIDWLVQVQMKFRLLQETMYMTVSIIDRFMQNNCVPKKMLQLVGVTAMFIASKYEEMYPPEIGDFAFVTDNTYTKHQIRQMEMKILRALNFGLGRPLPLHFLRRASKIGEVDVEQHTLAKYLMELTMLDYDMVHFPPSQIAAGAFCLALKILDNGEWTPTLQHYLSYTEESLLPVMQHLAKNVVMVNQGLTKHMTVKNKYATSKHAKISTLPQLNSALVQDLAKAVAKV
# Sequence of VEGFR2 (O08775 786-1343): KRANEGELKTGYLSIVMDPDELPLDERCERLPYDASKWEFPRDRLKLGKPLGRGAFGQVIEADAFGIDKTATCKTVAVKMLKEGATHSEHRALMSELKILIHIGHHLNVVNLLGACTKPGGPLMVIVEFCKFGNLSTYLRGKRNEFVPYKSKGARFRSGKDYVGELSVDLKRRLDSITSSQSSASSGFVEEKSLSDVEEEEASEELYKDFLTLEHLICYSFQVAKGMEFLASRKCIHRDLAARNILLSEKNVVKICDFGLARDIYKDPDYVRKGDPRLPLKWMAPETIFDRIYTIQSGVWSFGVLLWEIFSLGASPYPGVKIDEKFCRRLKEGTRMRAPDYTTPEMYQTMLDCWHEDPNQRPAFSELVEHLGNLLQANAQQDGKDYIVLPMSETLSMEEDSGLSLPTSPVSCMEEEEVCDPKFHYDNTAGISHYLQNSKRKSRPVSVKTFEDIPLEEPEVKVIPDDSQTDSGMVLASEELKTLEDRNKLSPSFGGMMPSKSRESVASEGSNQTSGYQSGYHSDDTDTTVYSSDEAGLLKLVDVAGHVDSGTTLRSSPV
# T1 sequence (P00533 669-1210 limits assumed): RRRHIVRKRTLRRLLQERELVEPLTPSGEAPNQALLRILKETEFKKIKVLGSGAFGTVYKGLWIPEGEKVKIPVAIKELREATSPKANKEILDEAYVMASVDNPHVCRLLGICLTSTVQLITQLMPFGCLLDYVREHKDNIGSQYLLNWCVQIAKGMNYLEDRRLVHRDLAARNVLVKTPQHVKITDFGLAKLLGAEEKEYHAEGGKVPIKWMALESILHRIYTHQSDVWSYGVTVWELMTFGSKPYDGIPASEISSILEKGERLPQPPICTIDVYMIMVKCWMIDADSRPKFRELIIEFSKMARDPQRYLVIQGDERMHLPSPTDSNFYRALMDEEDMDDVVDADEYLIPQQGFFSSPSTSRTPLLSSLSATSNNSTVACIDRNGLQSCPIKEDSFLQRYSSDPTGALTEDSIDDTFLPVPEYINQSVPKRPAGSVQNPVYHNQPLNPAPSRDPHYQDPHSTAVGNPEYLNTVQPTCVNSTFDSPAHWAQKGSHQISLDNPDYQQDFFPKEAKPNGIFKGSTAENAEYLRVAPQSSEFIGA
Compound,inhibition at 2 µM (EGFR),IC50 (CDK1),IC50 (A375 malignant melanoma),IC50 (HCT-116 colon carcinoma),IC50 [1],IC50 (CDK2),IC50 (VEGFR2)
"O=S(=O)(NCCO)c1ccc(Nc2nc(Nc3ccc(C(F)(F)F)cc3)c3cn[nH]c3n2)cc1 [Cpd 10, N-(2-hydroxy-ethyl)-4-[4-(4-trifluoromethyl-phenylamino)-1H-pyrazolo[3,4-d]pyrimidin-6-ylamino]-benzenesulfonamide]",31%,1520 nM,1000 nM,10000 nM,3400 nM,377 nM,3490 nM
"NS(=O)(=O)c1ccc(Nc2nc(Nc3ccc4[nH]ncc4c3)nc3[nH]ncc23)cc1 [Cpd 12, 4-[6-(1H-indazol-5-ylamino)-1H-pyrazolo[3,4-d]pyrimidin-4-ylamino]-benzenesulfonamide]",44%,568 nM,85200 nM,10000 nM,36000 nM,432 nM,536 nM
